Each structure is given as a SMILES string.

Assay [1] addresses T1, B-Raf kinase (SEQ ID NO: 1) (Homo sapiens, UniProt P15056).
T1 construct: GST (N); purchased Sigma
The assay can be described thus: Biochemical Assay for B-Raf (coupled pyruvate kinase/lactate dehydrogenase assay). The settings on record: 1 mM ATP; read-out: BRAF (inhibition of biochemical activity, IC50).

The target of assay [2] is T2, C-Raf kinase (SEQ ID NO: 2) (Homo sapiens, UniProt P04049, Y340D/Y341D).
T2 construct: C-Raf residues 306-end; Y340D, Y341D with; GST (N); purchased Sigma
The assay can be described thus: Biochemical Assay for C-Raf (coupled pyruvate kinase/lactate dehydrogenase assay). As to conditions: 1 mM ATP; read-out: CRAF (inhibition of biochemical activity, IC50).

The next assay deals with MiaPaca-2 cells. The assay can be described thus: MiaPaca-2 Cell Proliferation Assay. In kind it is cell-based. The settings on record: Homo sapiens, MIA PaCa-2, MiaPaca-2 cells; Table 2; read-out: Inhibition of cell proliferation in MiaPaca-2 (IC50 class). As for the experimental part:
Miapaca-2 cells (catalog #CRL-1420) are obtained from the American Type Culture Collect (ATTC, Manassas, VA). Briefly, cells were grown in DMVEM supplemented with 10 characterized fetal bovine serum (Invitrogen, Carlsbad, CA), 2.5% New Zealand sourced horse serum and 1 Penicillin/Streptomycin/L-Glutamine at 37° C., 5 CO2, and 95% humidity. Cells are expanded until reaching 70-95% confluency at which point they are sub-cultured or harvested for assay use. A serial dilution of test compound is dispensed into a 96-well black clear bottom plate in triplicate. Three thousand cells are added per well in 200 μL complete growth medium in the 96-well plate. Plates are incubated for 67 to 72 h at 37° C., 5% CO2, and 95% humidity. At the end of the incubation, 40 μL of a 440 μM solution of resazurin (Sigma, St. Louis, MO) in PBS is added to each well of the plate and plates are incubated for an additional 5 to 6 h at 37° C., 5% CO2, and 95% humidity. Plates are read on a Synergy2 or equivalent reader (Biotek, Winooski VT) using an excitation of 540 nm and an emission of 600 nm. Data is analyzed using Prism software (Graphpad, San Diego, CA) to calculate IC50 values.

A further assay relates to HCT-116 cells. Put plainly: HCT-116 Cell Proliferation Assay. In kind it is cell-based. As to conditions: Homo sapiens, HCT-116, HCT-116 cells; Table 2; read-out: Inhibition of cell proliferation in HCT-116 (IC50 class). As for the experimental part:
HCT-116 cells (catalog #CCL-247) are obtained from the American Type Culture Collect (ATCC, Manassas, VA). Briefly, cells are grown in McCoy's 5A supplemented with 10% characterized fetal bovine serum (Invitrogen, Carlsbad, CA) and 1% Penicillin/Streptomycin/L-Glutamine at 37° C., 5% CO2, and 95% humidity. Cells are expanded until reaching 70-95% confluency at which point they are subcultured or harvested for assay use. A serial dilution of test compound is dispensed into a 384-well black clear bottom plate in triplicate. 375 cells are added per well in 50 μL complete growth medium in the 384-well plate. Plates are incubated for 67 to 72 hours at 37° C., 5% CO2, and 95% humidity. At the end of the incubation, 40 μL of a […] solution of resazurin (Sigma, St. Louis, MO) in PBS is added to each well of the plate and plates are incubated for an additional 4 to 5 h at 37° C., 5% CO2, and 95% humidity. Plates are read on a Synergy2 or equivalent reader (Biotek, Winooski, VT) using an excitation of 540 nm and an emission of 600 nm. Data is analyzed using Prism software (Graphpad, San Diego, CA) to calculate IC50 values.

For a further assay, the system named is HPAF-II cells. The assay can be described thus: HPAF-II Cell Proliferation Assay. The format is cell-based. As to conditions: Homo sapiens, HPAF-II, HPAF-II cells; Table 2; read-out: Inhibition of cell proliferation in HPAF-II (IC50 class). As for the experimental part: (§1) HPAF-II cells (catalog #CRL-1997) are obtained from the American Type Culture Collect (ATCC, Manassas, VA). Briefly, cells are grown in Minimum Essential Media supplemented with 10% characterized fetal bovine serum (Invitrogen, Carlsbad, CA) and 1% Penicillin/Streptomycin/L-Glutamine at 37° C., 5% CO2, and 95% humidity. Cells are expanded until reaching 70-95% confluency at which point they are sub-cultured or harvested for assay use. A serial dilution of test compound is dispensed into a 384-well black clear bottom plate in triplicate. 750 cells are added per well in 50 μL complete growth medium in the 384-well plate. Plates are incubated for 115 to 120 hours at 37° C., 5% CO2, and 95% humidity. At the end of the incubation, 40 μL of a 440 μM solution of resazurin (Sigma, St. Louis, MO) in PBS is added to each well of the plate and plates are incubated for an additional 18 to 24 hours at 37° C., 5% CO2, and 95% humidity. Plates are read on a Synergy2 or equivalent reader (Biotek, Winooski, VT) using an excitation of 540 nm and an emission of 600 nm. Data is analyzed using Prism software (Graphpad, San Diego, CA) to calculate IC50 values.

A further assay concerns Pa16c cells. The assay can be described thus: Pa16c Cell Proliferation Assay. The format is cell-based. The settings on record: Table 2, read-out: Inhibition of cell proliferation in Pa16c (IC50 class). As for the experimental part: as §1, with “Pa16c” for “HPAF-II”, “cells” for “cells (catalog #CRL-1997)”, “Dr. Channing Der, University of North Carolina at Chapel Hill.” for “the American Type Culture Collect (ATCC, Manassas, VA).”, “Dulbecco's Modified Eagle Medium” for “Minimum Essential Media”, “67” for “115”, “72 h” for “120 hours”

T2 sequence (P04049 307-648 Y340D/Y341D): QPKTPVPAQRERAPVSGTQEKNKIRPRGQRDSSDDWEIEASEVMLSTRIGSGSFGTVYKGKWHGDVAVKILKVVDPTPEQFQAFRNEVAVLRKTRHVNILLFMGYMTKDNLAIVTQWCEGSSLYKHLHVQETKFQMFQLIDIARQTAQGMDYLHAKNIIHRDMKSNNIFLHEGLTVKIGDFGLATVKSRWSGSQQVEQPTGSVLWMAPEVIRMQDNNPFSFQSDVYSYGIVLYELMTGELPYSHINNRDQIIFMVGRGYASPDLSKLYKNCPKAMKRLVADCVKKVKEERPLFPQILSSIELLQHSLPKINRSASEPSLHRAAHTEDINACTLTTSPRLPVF
T1 sequence (P15056 416-766): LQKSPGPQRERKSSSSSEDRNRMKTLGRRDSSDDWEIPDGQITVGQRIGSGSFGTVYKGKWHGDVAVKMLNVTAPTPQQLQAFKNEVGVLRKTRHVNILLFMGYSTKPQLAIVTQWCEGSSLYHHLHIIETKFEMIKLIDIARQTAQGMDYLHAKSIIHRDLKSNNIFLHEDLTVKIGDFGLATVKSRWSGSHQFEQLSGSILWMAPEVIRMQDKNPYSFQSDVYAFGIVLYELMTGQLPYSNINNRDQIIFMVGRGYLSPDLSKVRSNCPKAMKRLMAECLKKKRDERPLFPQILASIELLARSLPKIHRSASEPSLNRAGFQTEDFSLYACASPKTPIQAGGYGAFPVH

Turning to `Cc1ccc(NC(=O)c2cncc(C(C)(C)C#N)c2)cc1-c1cncc(-c2ccnc(NC(=O)C3CC3)c2)n1` [Example 108], the IC50 in assay [1] was under 100 nM; in assay [2], under 100 nM; with MiaPaca-2 cells, 100 to 500 nM; with HCT-116 cells, under 100 nM; with HPAF-II cells, 100 to 500 nM; in the assay with Pa16c cells it was 1000 to 10000 nM.

In the case of `Cc1ccc(NC(=O)c2cc(C(C)(C)F)cnn2)cc1-c1cncc(-c2cc(NC(=O)C3CC3)ncn2)c1` [Example 62], the IC50 in assay [1] is under 100 nM; in assay [2], under 100 nM; in the assay on MiaPaca-2 cells it was 100 to 500 nM; in the assay with HCT-116 cells, under 100 nM; in the assay on HPAF-II cells, under 100 nM; with Pa16c cells, 500 to 1000 nM.

As for `CC(=O)Nc1cc(-c2cc(-c3cc(NC(=O)c4ccc(C(F)(F)F)nn4)ccc3C)ccn2)ccn1` [Example 13], the IC50 in assay [1] is 500 to 1000 nM; in assay [2], 100 to 500 nM; with MiaPaca-2 cells, under 100 nM; in the assay with HCT-116 cells, under 100 nM; in the assay on HPAF-II cells, under 100 nM; in the assay with Pa16c cells, under 100 nM.

Consider `CC(=O)Nc1cc(-c2cc(-c3cc(NC(=O)c4ccc(C(F)(F)F)nc4)ccc3C)ccn2)ccn1` [Example 24], for which the IC50 is under 100 nM in assay [1]; under 100 nM in assay [2]; under 100 nM in the assay with MiaPaca-2 cells; under 100 nM with HCT-116 cells; under 100 nM with HPAF-II cells; 100 to 500 nM with Pa16c cells.

In the case of `CNCC(=O)Nc1cc(-c2cc(-c3cc(NC(=O)c4cc(C(F)(F)F)cnn4)ccc3C)ccn2)ccn1` [Example 88], the IC50 was under 100 nM in assay [1]; under 100 nM in assay [2]; 100 to 500 nM with MiaPaca-2 cells; 100 to 500 nM in the assay with HCT-116 cells; 100 to 500 nM in the assay on HPAF-II cells; 1000 to 10000 nM in the assay on Pa16c cells.

As to `Cc1ccc(NC(=O)c2cncc(C(C)(F)F)c2)cc1-c1ccnc(-c2ccnc(NC(=O)C3CC3)c2)c1` [Example 82], the IC50 in assay [1] is under 100 nM; in assay [2], under 100 nM; with MiaPaca-2 cells, 500 to 1000 nM; in the assay on HCT-116 cells it was 100 to 500 nM; in the assay on HPAF-II cells, 500 to 1000 nM; with Pa16c cells it was 1000 to 10000 nM.

On to `COc1cnnc(C(=O)Nc2ccc(C)c(-c3ccnc(-c4ccnc(NC(=O)C5CC5)c4)c3)c2)c1` [Example 49], for which the IC50 in assay [1] is under 100 nM; in assay [2], under 100 nM; in the assay with MiaPaca-2 cells it was 500 to 1000 nM; in the assay on HCT-116 cells it was 100 to 500 nM; in the assay on HPAF-II cells, 100 to 500 nM; in the assay with Pa16c cells, 1000 to 10000 nM.

In the case of `Cc1ccc(NC(=O)c2cc(C(F)(F)F)cnn2)cc1-c1ccnc(-c2ccoc2)c1` [Example 145], the IC50 (in assay [1]; in assay [2]; with MiaPaca-2 cells; with HCT-116 cells; in the assay on HPAF-II cells; with Pa16c cells) was 100 to 500 nM throughout.

Regarding `O=C(Nc1cc(-c2ccnc(-c3ccnc(NC(=O)C4CC4)c3)c2)c(F)cc1F)c1cc(C(F)(F)F)cnn1` [Example 46], the IC50 in assay [1] was under 100 nM; in assay [2], under 100 nM; in the assay on MiaPaca-2 cells it was 1000 to 10000 nM; in the assay with HCT-116 cells, 1000 to 10000 nM; in the assay with HPAF-II cells, 1000 to 10000 nM; with Pa16c cells, 1000 to 10000 nM.

Consider `Cc1ccc(NC(=O)c2cc(C3CC3)cnn2)cc1-c1cncc(-c2cc(NC(=O)C3CC3)ncn2)c1` [Example 69], for which the IC50 in assay [1] was under 100 nM; in assay [2] it was under 100 nM; in the assay on MiaPaca-2 cells it was 1000 to 10000 nM; in the assay with HCT-116 cells, 100 to 500 nM; in the assay with HPAF-II cells, 500 to 1000 nM; with Pa16c cells, 1000 to 10000 nM.

`Cc1ccc(NC(=O)c2cncc(C(F)(F)F)c2)cc1-c1ccnc(-c2ccnc(NC(=O)C3CC3)c2)c1` [Example 78]: the IC50 in assay [1] was under 100 nM; in assay [2] it was under 100 nM; with MiaPaca-2 cells, 500 to 1000 nM; with HCT-116 cells, 100 to 500 nM; in the assay with HPAF-II cells, 100 to 500 nM; in the assay on Pa16c cells it was 1000 to 10000 nM.

For `Cc1ccc(NC(=O)c2cc(C(C)(F)F)cnn2)cc1-c1cncc(-c2cc(NC(=O)C3CC3)ncn2)c1` [Example 63], the IC50 was under 100 nM in assay [1]; under 100 nM in assay [2]; 100 to 500 nM with MiaPaca-2 cells; under 100 nM in the assay on HCT-116 cells; 100 to 500 nM in the assay on HPAF-II cells; 500 to 1000 nM in the assay with Pa16c cells.

On to `CC(=O)Nc1cc(-c2cc(-c3cc(NC(=O)c4ccc(C(F)F)nc4)c(F)cc3C)ccn2)ccn1` [Example 20], for which the IC50 in assay [1] was under 100 nM; in assay [2], under 100 nM; in the assay with MiaPaca-2 cells, under 100 nM; in the assay on HCT-116 cells, 100 to 500 nM; in the assay with HPAF-II cells, under 100 nM; in the assay with Pa16c cells, 100 to 500 nM.

Regarding `Cc1ccc(NC(=O)c2cc(C3CC3)cnn2)cc1-c1ccnc(-c2cnsc2)c1` [Example 136], the IC50 in assay [1] was 100 to 500 nM; in assay [2] it was under 100 nM; in the assay with MiaPaca-2 cells it was 100 to 500 nM; in the assay on HCT-116 cells, 100 to 500 nM; in the assay on HPAF-II cells, 100 to 500 nM; with Pa16c cells, 100 to 500 nM.

With `Cc1ccc(NC(=O)c2cc(C(F)(F)F)cnn2)cc1-c1ccnc(-c2ccnc(NC(=O)CN(C)C)c2)c1` [Example 52], the IC50 is under 100 nM in assay [1]; under 100 nM in assay [2]; 100 to 500 nM in the assay with MiaPaca-2 cells; 100 to 500 nM in the assay with HCT-116 cells; 100 to 500 nM in the assay with HPAF-II cells; 500 to 1000 nM in the assay on Pa16c cells.

For the compound `CCNc1cc(-c2cc(-c3cc(NC(=O)c4cc(C(F)(F)F)cnn4)ccc3C)ccn2)ccn1` [Example 95], the IC50 fell in the range of 100 to 500 nM in assay [1]; 100 to 500 nM in assay [2]; 100 to 500 nM in the assay on MiaPaca-2 cells; 100 to 500 nM in the assay on HCT-116 cells; 100 to 500 nM in the assay on HPAF-II cells; 500 to 1000 nM in the assay with Pa16c cells.

(Values after US20260226084A1, “DUAL RAF AND TUBULIN INHIBITORS AND METHODS OF USE THEREOF” (Deciphera Pharmaceuticals, LLC, priority 2023, published 2026).)
